Structures can show the parent of a compound that is named as a salt. Where two headings read alike, the source gives them in different places.
Experiments:
[1] = Bioequivalence study of two enalapril 20 mg tablet formulae, plasma levels by LC-MS/MS; assay type: in vivo, human; settings: single oral dose 20 mg, 30 healthy male volunteers
Method: Protein precipitation were done for each sample by using acetonitrile. The mobile phase was prepared by mixing of 70% methanol and 30% of a mixture of 20 mM ammonium acetate and 0.2 mM formic acid, while the stationary phase was RP-C18 column (50 × 4.0 mm ID, 5 μm). The column was maintained at 40°C, while the autosampler temperature was 4°C. The flow rate was 1.0 ml/min. The plasma levels of the analytes were measured after a single dose of 20 mg enalapril tablets under fasting conditions.
In this study we applied a clinical study similar to that of [16] with modification. Thirty healthy adult male volunteers participated in this study after signing an informed consent. […]
After fasting period (12 hrs, overnight), each volunteer was given an oral dose containing 20 mg of enalapril either “A, reference” or “B, tested” formula with 200 mL of water in the sequence determined by randomization. […]
The pharmacokinetic parameters considered for assessment of the bioequivalence study between the reference drug and test drug were as follows: maximum plasma concentration (Cmax), area under plasma concentration/time plot until the last quantifiable value (AUC0–72), auxiliary parameters, time of the maximum plasma concentration (tmax), elimination half-life time (t-half), and area under plasma concentration/time plot extrapolated to infinity (AUC0–∞). […]

[2] = cited from earlier work
[3] = LC-MS/MS method; cited from earlier work
[4] = single oral intake of 20 mg of enalapril, 24 healthy subjects, GC-MS method; cited from earlier work
[5] = Stability of enalapril and enalaprilat in spiked plasma under different storage conditions; assay type: physicochemical, human; settings: for Stability: n = 6; for Stability test results: spiked plasma and stock solutions, room temperature for 20 hrs, freeze-thaw cycles, autosampler, accelerated stability
Description: (4) Stability. Stability validation was done in triplicate run for low, mid, and high QC samples and calculated from spiked calibration curve. […]

[6] = design: method as in doi:10.5012/bkcs.2004.25.6.878; settings: after oral administration of enalapril, LC-MS method; cited from earlier work
[7] = design: method as in PMID 27437883; settings: hospitalizing type 2 diabetes mellitus patients, overall and high-risk subgroups; cited from earlier work
[8] = Accelerated stability at −30.0°C for 30 days, QC 3 ng/ml, plasma
[9] = Accelerated stability at −30.0°C for 30 days, QC 100 ng/ml, plasma
[10] = Accelerated stability at −30.0°C for 30 days, QC 160 ng/ml, plasma
[11] = Autosampler stability 24 h at 4°C, QC 3 ng/ml
[12] = Autosampler stability 24 h at 4°C, QC 100 ng/ml
[13] = Autosampler stability 24 h at 4°C, QC 160 ng/ml
[14] = Freeze and thaw stability at −20°C (3 cycles), QC 3 ng/ml, plasma
[15] = Freeze and thaw stability at −20°C (3 cycles), QC 100 ng/ml, plasma
[16] = Room temperature stability for 10 h, QC 3 ng/ml, plasma
[17] = Room temperature stability for 10 h, QC 100 ng/ml, plasma
[18] = Room temperature stability for 10 h, QC 160 ng/ml, plasma

Row | Stability [5, 8] | Stability [5, 9] | Stability [5, 10] | Stability [5, 11] | Stability [5, 12] | Stability [5, 13] | Stability [5, 14] | Stability [5, 15] | Stability [5, 16] | Stability [5, 17] | Stability [5, 18] | Stability test results [5] | Structure (SMILES) | AUC0–t [3] | AUC0–∞ [3] | Cmax [3] | T1/2 [3] | tmax [3] | other results
1 | 97.81% | 96.59% | 85.10% | 95.83% | 98.34% | 95.40% | 96.45% | 98.54% | 99.57% | 101.64% | 103.66% | greater than 85% | CCOC(=O)[C@H](CCc1ccccc1)N[C@@H](C)C(=O)N1CCC[C@H]1C(=O)O [enalapril, (S)-1-(N-(1-(ethoxycarbonyl)-3-phenylpropyl)-L-alanyl)-Lproline (Z)-2-butenedioate salt] | 136 ± 36 ng·h/mL | 138 ± 36 ng·h/mL | 90.5 ± 28.4 ng/mL | 1.35 ± 0.61 h | 0.860 ± 0.310 h | Tolerability in volunteers [1]: well tolerated; Bioavailability ([2]; absorbed from the gastrointestinal tract): 60–70%; Plasma level after 4 hrs ([2]; after 4 hrs): < 10 ng/mL; Effect of presence of food in the GI tract on absorption [2]: not affected; Terminal half-life [2]: about 2 h; Time to maximum plasma concentration ([2]; enalapril, after oral administration): ≤ 1 h; Cmax, mean [4]: 72.9 ± 41.6 ng/mL; tmax [4]: 4.0 ± 1.4 h; Maximum plasma concentration (Cmax), mean [6]: 102 ± 39 ng/mL; Time to maximum plasma concentration (tmax) [6]: 0.96 ± 0.36 h
2 | 110.47% | 103.62% | 96.68% | 100.94% | 99.93% | 102.09% | 95.31% | 96.70% | 98.02% | 98.47% | 100.17% | greater than 85% | C[C@H](N[C@@H](CCc1ccccc1)C(=O)O)C(=O)N1CCC[C@H]1C(=O)O [enalaprilat] | 401 ± 89 ng·h/mL | 420 ± 91 ng·h/mL | 47.5 ± 12.4 ng/mL | 6.71 ± 2.22 h | 4.20 ± 1.06 h | Half-life [2]: 30 to 35 h; Time of maximum plasma concentration ([2]; enalaprilat after administration of enalapril): 3 to 4 h; Stability ([5]; Freeze and thaw stability at −20°C (3 cycles), QC 160 ng/ml, plasma): 101.18%
3 |  |  |  |  |  |  |  |  |  |  |  |  | N[C@@H](CC(=O)N1CCn2c(nnc2C(F)(F)F)C1)Cc1cc(F)c(F)cc1F [sitagliptin] |  |  |  |  |  | Effect on the risk for heart failure [7]: did not affect
